Source: patent US11639446B2, “Cationic electrodeposition coating composition” (KANSAI PAINT CO., LTD., priority 2017, dated 2023)

Test: Water solubility of catalyst

Structure (SMILES)	Water solubility of catalyst
CCCCCCC[CH2][Sn](=[O])[CH2]CCCCCCC [Dioctyltin oxide, reference compound]	Insoluble
Cn1cc[n+](C)c1C(=O)[O-] [modified imidazole A, 1,3-dimethylimidazolium-2-carboxylate]	Soluble
CCCC[n+]1ccn(C)c1C(=O)[O-] [modified imidazole B]	Soluble
Cn1cc[n+](C)c1/C([O-])=N\c1ccccc1 [modified imidazole C]	Insoluble
CCCCCCCC[n+]1ccn(C)c1/C([O-])=N\c1ccccc1 [modified imidazole E]	Insoluble
CCCCCCCCn1cc[n+](CCCCCCCC)c1/C([O-])=N\c1ccccc1 [modified imidazole F]	Insoluble
Cn1cc[n+](C)c1.[Cl-] [reference compound]	Soluble
